Patent US6417212B1, “Modulators of peroxisome proliferator activated receptors” (Eli Lilly & Company, priority 1999, dated 2002)

Key:
[1] = system: huPPARα; experiment: Cotransfection assay in CV-1 cells, huPPARα (GAL4 chimeric system); format: cell-based, human; conditions: luciferase reporter, relative to PPARα agonist reference molecule
Method: (§1) DNA-dependent binding (ABCD binding) was carried out using SPA technology with PPAR receptors. Tritium-labeled PPARγ and PPARα agonists were used as radioligands for generating displacement curves and IC50 values with compounds of the invention. Cotransfection assays were carried out in CV-1 cells. The reporter plasmid contained an acylCoA oxidase (AOX) PPRE and TK promoter upstream of the luciferase reporter cDNA. Appropriate PPARs and RXRα were constitutively expressed using plasmids containing the CMV promoter. For PPARα and PPARβ, interference by endogenous PPARγ in CV-1 cells was an issue. In order to eliminate such interference, a GAL4 chimeric system was used in which the DNA binding domain of the transfected PPAR was replaced by that of GAL4, and the GAL4 response element was utilized in place of the AOX PPRE. Cotransfection efficacy was determined relative to PPARα agonist and […] reference molecules. Efficacies were determined by computer fit to a concentration-response curve, or in some cases at a single high concentration of agonist (10 μM). For binding or cotransfection studies with receptors other than PPARs, similar assays were carried out using appropriate ligands, receptors, reporter constructs, etc., for that particular receptor.
(§2) These studies were carried out to evaluate the ability of compounds of the invention to bind to and/or activate various nuclear transcription factors, particularly huPPARα (“hu” indicates “human”) and huPPARγ. These studies provide in vitro data concerning efficacy and selectivity of compounds of the invention. Furthermore, binding and cotransfection data for compounds of the invention were compared with corresponding data for marketed compounds that act on either huPPARα or huPPARγ.

[2] = biological target: T1, huPPARγ (Homo sapiens, UniProt P37231); experiment: DNA-dependent binding (ABCD binding), SPA, huPPARγ; conditions: displacement of tritium-labeled PPARγ agonist radioligand
T1 sequence (P37231 1-505): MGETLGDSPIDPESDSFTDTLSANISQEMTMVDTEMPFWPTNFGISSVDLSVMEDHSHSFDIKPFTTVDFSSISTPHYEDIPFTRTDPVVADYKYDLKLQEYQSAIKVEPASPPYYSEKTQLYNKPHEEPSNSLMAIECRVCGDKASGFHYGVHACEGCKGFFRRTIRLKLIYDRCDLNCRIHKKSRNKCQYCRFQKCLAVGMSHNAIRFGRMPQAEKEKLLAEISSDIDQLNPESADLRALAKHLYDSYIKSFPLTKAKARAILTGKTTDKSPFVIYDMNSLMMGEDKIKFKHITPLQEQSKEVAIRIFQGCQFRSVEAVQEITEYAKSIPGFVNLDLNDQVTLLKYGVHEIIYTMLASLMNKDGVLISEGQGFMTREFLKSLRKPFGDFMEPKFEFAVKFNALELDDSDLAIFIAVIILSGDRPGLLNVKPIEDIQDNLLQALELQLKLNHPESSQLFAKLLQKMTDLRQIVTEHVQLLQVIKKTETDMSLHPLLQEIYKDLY
T1 sequence (P19793 1-462 partner): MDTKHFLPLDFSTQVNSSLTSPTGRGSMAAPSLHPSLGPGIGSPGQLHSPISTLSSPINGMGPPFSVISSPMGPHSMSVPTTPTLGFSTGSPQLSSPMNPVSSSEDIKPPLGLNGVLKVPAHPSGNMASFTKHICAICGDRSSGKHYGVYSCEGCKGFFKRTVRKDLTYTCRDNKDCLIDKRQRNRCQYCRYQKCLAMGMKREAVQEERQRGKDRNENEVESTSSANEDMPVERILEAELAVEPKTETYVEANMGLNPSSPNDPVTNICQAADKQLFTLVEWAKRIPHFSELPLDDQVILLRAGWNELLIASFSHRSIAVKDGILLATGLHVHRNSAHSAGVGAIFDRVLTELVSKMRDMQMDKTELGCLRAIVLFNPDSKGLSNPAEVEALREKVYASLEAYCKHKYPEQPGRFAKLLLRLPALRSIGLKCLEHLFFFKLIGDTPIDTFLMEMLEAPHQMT
Method: as §1, with “For PPARα and PPARβ, interference by endogenous PPARγ in CV-1 cells was an issue.” left out
as §2

[3] = biological target: T2, huPPARα (Homo sapiens, UniProt Q07869); experiment: DNA-dependent binding (ABCD binding), SPA, huPPARα; conditions: displacement of tritium-labeled PPARα agonist radioligand
T2 sequence (Q07869 1-468): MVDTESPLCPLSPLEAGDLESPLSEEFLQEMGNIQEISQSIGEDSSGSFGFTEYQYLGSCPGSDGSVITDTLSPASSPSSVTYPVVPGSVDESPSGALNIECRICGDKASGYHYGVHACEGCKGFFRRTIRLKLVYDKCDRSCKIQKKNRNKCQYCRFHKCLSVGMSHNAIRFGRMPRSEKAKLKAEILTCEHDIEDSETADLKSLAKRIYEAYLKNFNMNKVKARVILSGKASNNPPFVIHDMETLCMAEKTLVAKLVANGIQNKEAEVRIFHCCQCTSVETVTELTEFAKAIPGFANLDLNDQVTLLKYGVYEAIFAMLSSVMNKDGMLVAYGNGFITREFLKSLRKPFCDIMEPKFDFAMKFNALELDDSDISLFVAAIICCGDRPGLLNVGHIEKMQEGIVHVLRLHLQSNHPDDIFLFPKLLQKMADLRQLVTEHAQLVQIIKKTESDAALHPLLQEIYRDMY
T2 sequence (P19793 1-462 partner): T1 sequence (P19793 1-462 partner)
Method: as §1, with “For PPARα and PPARβ, interference by endogenous PPARγ in CV-1 cells was an issue.” left out
as §2

Compound | huPPARα CTF Efficacy [1] [%] | IC50 [2] [nM] | IC50 [3] [nM]
Cc1oc(-c2ccc(-c3c(F)cccc3F)cc2)nc1CCOc1ccc(OC(C)(C)C(=O)O)cc1 [Example 14, 2-(4-{2-[2-(2′,6′-Difluorobiphenyl-4-yl)-5-methyloxazol-4-yl]-ethoxy}-phenoxy)-2-methylpropionic acid] | 90 | 457 | 155
Cc1oc(-c2ccc(-c3ccccc3)cc2)nc1CCOc1cccc(OC(C)(C)C(=O)O)c1 [Example 21, 2-{3-[2-(2-Biphenyl-4-yl-5-methyloxazol-4-yl)ethoxy]phenoxy}-2-methylpropionic acid] | 92 | 532 | 97
Cc1sc(-c2cccc(-c3ccccc3)c2)nc1CCOc1ccc(OC(C)(C)C(=O)O)cc1 [Example 46, 2-{4-[2-(2-Biphenyl-3-yl-5-methyl-thiazol-4-yl)-ethoxy]-phenoxy}-2-methyl-propionic acid] | 122 | 268 | 447
